{"source": "patent US11590167B2", "about": "“Methods and compositions for use of therapeutic T cells in combination with kinase inhibitors” (Juno Therapeutics, Inc., priority 2016, dated 2023)", "key": {"anti-CD19 CAR T cells": {"system": "anti-CD19 CAR T cells", "test": "Cytokine production by anti-CD19 CAR T cells co-cultured with irradiated K562-CD19 (MSD)", "format": "cell-based, human", "experimental": "CAR-T cells generated as described above were plated at 100,000 cells/well on 96 well Poly-D-Lysine coated plates. Irradiated target cells (K562-CD19) were added at an effector to target ratio of 2.5:1. […] Culture supernatants were harvested at day 2, 3 or 4, and IFNγ, IL-2 and TNFa were measured from the culture supernatants using cytokine kits from Meso Scale Discovery (MSD)."}, "[1]": {"system": "Nalm-6 cells expressing firefly luciferase", "test": "Nalm-6 disseminated tumor xenograft mouse model, inhibitor in drinking water with suboptimal anti-CD19 CAR T dose", "format": "in vivo, NSG mice", "experimental": "To permit assessment of the effect of a combination therapy with the inhibitor, a suboptimal dose of anti-CD19 CAR T cells was i.v. injected into the mice at 5×10^5/mouse at day 5. As a control, mice were administered the vehicle control without administration of the CAR-T cells or inhibitor.\nFollowing treatment as described above, the tumor growth and percent survival of treated mice was determined."}, "[2]": {"system": "EGFRt+ CAR T cells and/or tumor cells", "test": "CAR+ T cell and tumor cell counts in blood and bone marrow of Nalm-6 bearing mice", "format": "in vivo, NSG mice", "experimental": "NSG mice described in Example 2 were intravenously injected on day 0 with 5×10^5 Nalm-6 cells expressing firefly luciferase. […] A bridging experiment confirmed that administration of ibrutinib by drinking water was equivalent to oral gavage administration (data not shown). To permit assessment of the effect of a combination therapy with the inhibitor, a suboptimal dose of anti-CD19 CAR T cells was i.v. injected into the mice at 5×10^5/mouse at day 5. As a control, mice were administered the vehicle control without administration of the CAR-T cells or inhibitor."}, "RLK/TXK": {"molecular_target": "T1, RLK/TXK (Homo sapiens, UniProt P42681)", "T1 sequence (P42681 1-527)": "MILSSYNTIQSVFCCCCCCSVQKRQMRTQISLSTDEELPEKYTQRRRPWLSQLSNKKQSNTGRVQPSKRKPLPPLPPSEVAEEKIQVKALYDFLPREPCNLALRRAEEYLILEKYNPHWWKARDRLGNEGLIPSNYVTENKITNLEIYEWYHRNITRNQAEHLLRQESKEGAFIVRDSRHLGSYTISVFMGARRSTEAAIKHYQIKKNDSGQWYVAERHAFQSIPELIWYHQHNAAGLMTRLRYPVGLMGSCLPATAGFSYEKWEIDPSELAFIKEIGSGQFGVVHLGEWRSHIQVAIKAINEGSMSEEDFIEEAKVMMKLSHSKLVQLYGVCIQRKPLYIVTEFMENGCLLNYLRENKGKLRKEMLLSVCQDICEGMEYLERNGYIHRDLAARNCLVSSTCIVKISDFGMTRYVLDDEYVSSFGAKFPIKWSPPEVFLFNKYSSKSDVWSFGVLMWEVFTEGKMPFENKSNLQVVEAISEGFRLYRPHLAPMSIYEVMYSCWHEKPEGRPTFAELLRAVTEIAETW", "conditions": "literature value given as embodiment; read-out: IC50 value, inhibitory activity against RLK/TXK; cited from earlier work"}, "[3]": {"conditions": "observed Cmax quoted for dosage range; cited from earlier work"}}}
{"smiles": "CC#CC(=O)N1CCC[C@H]1c1nc(-c2ccc(C(=O)Nc3ccccn3)cc2)c2c(N)nccn12", "note": "[compound of Formula (II)]", "values": [{"measurement": "CAR T cytokine production (IFNγ, IL-2, TNFα) following stimulation with K562.CD19 cells", "setting": "anti-CD19 CAR T cells; overall, three donors, culture supernatants, ibrutinib 0.5-500 nM, Formula (II) 50-5000 nM", "result": "did not inhibit CAR T cytokine production"}, {"measurement": "cytokine production", "setting": "anti-CD19 CAR T cells; some donors, compound of Formula (II)", "result": "modestly increased cytokine production in some donors"}, {"measurement": "tumor growth compared with CAR T administered with vehicle alone", "setting": "[1]; with CAR T, drinking water 25 mg/kg/day", "result": "significantly (P<0.001) decreased tumor growth"}, {"measurement": "median survival compared to suboptimal anti-CD19 CAR T cell dose+vehicle", "setting": "[1]; with CAR-T cells, drinking water 25 mg/kg/day from day 4, p<0.001", "result": "increased median survival"}, {"measurement": "tumor cells in the blood or bone marrow compared to CAR+ cells with vehicle alone", "setting": "[2]; CAR+ cell treatment combined with inhibitor", "result": "significantly fewer tumor cells were detected"}, {"measurement": "circulating CAR+ T cells compared to CAR+ T cells and vehicle", "setting": "[2]; blood, days 7, 12, 19 and 26 post CAR+ T cell transfer, drinking water 25 mg/kg/day", "result": "significant increase in circulating CAR+ T cells"}, {"measurement": "number of cells in the blood", "setting": "[2]; day 19 post CAR-T cell transfer, ibrutinib p<0.05, Formula (II) p<0.001", "result": "significant increase in the number of cells in the blood"}, {"measurement": "IC50", "setting": "RLK/TXK", "result": "~368", "unit": "nM"}, {"measurement": "Cmax", "setting": "[3]", "result": 1800, "unit": "nM"}]}
